From PMC9469500, “Targeting an Initiator Allergen Provides Durable and Expansive Protection against House Dust Mite Allergy” (ACS Pharmacology & Translational Science, 2022)
Counter-ions that a name gives are not always drawn.

Tests used:
unsensitized BN rats = assay: HDM extract challenge in unsensitized (naive) BN rats, duration of protection; assay type: in vivo
thermodynamic solubility = assay type: physicochemical; details: thermodynamic from solid
human hepatocytes = assay: hepatocyte stability (human); assay type: in vitro ADME
[1] = Plasma protein binding (rat); assay type: in vitro ADME
Protocol: Plasma protein binding (PPB) was determined using Rapid Equilibrium Dialysis chambers with 8 kDa cut-off inserts (Fisher Scientific UK Ltd, Leicestershire, UK). Rat (Sprague Dawley strain) plasma EDTA K2 (pooled, mixed sex, SeraLab, West Sussex, UK) was centrifuged (13,000 x g, 10 min) to remove precipitates before addition of compounds (initial concentration 5 M). Concentrations were determined by liquid chromatography-tandem mass spectrometry (LC-MS-MS) (AB Sciex 3200 QTrap) after 4 h incubation at 37 °C with binding being calculated from the concentration of compound in each chamber. Assays were performed in replicate and the data expressed as mean ± s.e.

Pharmacokinetics in rats = details: rat p.o.
Protocol: Soluble formulations were developed and verified by high performance liquid chromatography (HPLC)
1 mL/kg) and p.o. (5 mg/kg, 5 mL/kg) in non-fasted Sprague-Dawley rats (male, 200-300 g, 10-16 weeks
of age, groups of three animals per route per compound). Timed blood samples were taken after dosing
and plasma prepared for LC-MS-MS quantification of the test substance after inclusion of an internal
standard. A non -compartmental model in WinNonlin software was used to calculate pharmacokinetic

[2] = Plasma protein binding (human); assay type: in vitro ADME
Protocol: Plasma Protein Binding Assay
Plasma protein binding (PPB) was determined using Rapid Equilibrium Dialysis chambers with 8 kDa cut-off inserts (Fisher Scientific UK Ltd, Leicestershire, UK). Rat (Sprague Dawley strain) plasma EDTA K2 (pooled, mixed sex, SeraLab, West Sussex, UK) was centrifuged (13,000 x g, 10 min) to remove precipitates before addition of compounds (initial concentration 5 µM). Concentrations were determined by liquid chromatography-tandem mass spectrometry (LC-MS-MS) (AB Sciex 3200 QTrap) after 4 h incubation at 37 °C with binding being calculated from the concentration of compound in each chamber. Assays were performed in replicate and the data expressed as mean ± s.e.
Cellular Stability of Compounds […]
Kaighn’s modification of Ham’s F12 medium (F12K). Cells were prepared for assay by washing 3 times with serum-free F12K. NR8383 Airway macrophages were grown in suspension culture in F12K, collected by centrifugation, washed in serum-free medium and aliquoted into test plates (1.4 x 10^6 cells/well). Both cell lines were treated with ADI compounds (100 nM) in serum -free F12K in a 5% CO 2 environment at 37 […]
n-Octanol (0.7 mL), pre -saturated with 10 mM PBS, pH7.4, was added to test compound (~1 mg) in a 2 mL HPLC vial followed by PBS (0. 7 mL), which had been pre -saturated with n -octanol. […]

[3] = system: rat airway epithelial cell line L2; assay: Cellular stability in L2 cells; assay type: in vitro ADME; details: 100 nM compound
Protocol: (§1) Cellular Stability of Compounds
(§2) The cellular stability of compounds in vitro was tested using rat airway epithelial cell line L2 and rat alveolar macrophage line NR8383 (ATCC©CRL-2192™). Assays were performed in replicate and the data expressed as mean ± s.e. mean. L2 cells were cultured to confluence in T25 flasks or 24 -well plates using Kaighn’s modification of Ham’s F12 medium (F12K). Cells were prepared for assay by washing 3 times with serum-free F12K. NR8383 Airway macrophages were grown in suspension culture in F12K, collected by centrifugation, washed in serum-free medium and aliquoted into test plates (1.4 x 10^6 cells/well). Both cell lines were treated with ADI compounds (100 nM) in serum -free F12K in a 5% CO 2 environment at 37 °C. Samples were removed for quantitative analysis by LC -MS-MS using appropriate multiple reaction monitoring transitions for each analyte. […]
(§3) n-Octanol (0.7 mL), pre -saturated with 10 mM PBS, pH7.4, was added to test compound (~1 mg) in a 2 mL HPLC vial followed by PBS (0. 7 mL), which had been pre -saturated with n -octanol. The mixture was shaken for 90 min before centrifugation for 10 min at 4,000 rpm. The upper organic layer (0.2 mL) and the aqueous layer (0.5 mL) were removed for analysis by LC-MS. Peak identity was confirmed by mass spectrometry and concentration assessed spectrophotometrically using a diode array detector. The log

plasma stability (human) = assay type: in vitro ADME
rat hepatocytes = assay: hepatocyte stability (rat); assay type: in vitro ADME
[4] = system: rats sensitized to the HDM allergen extract; assay: HDM extract challenge in rats sensitized to the HDM allergen extract (BAL cells and mediators); assay type: in vivo, BN rats; details: single i.t. aerosol dose 2 h before (15 μg/kg compound 1, 46 μg/kg compound 2), BAL 48 h
Excerpt: Control animals received saline vehicle treatment.

plasma stability (rat) = assay type: in vitro ADME
[5] = system: rat alveolar macrophage line NR8383; assay: Cellular stability in macrophages; assay type: in vitro ADME; details: 100 nM compound
Protocol: as §1, §2, §3

[6] = single i.t. dose (15 μg/kg compound 1, 46 μg/kg compound 2), BAL 48 h

SMILES: CC(C)[C@H](NC(=O)[C@H](C)NC(=O)[C@@H](NC(=O)C1CC[N+](C)(C)CC1)C(C)(C)C)C(=O)C(=O)NCc1ccccc1 [Compound 2, 4-{(S)-1-[(S)-1-((S)-1-benzylaminooxalyl-2-methyl-propylcarbamoyl)-ethylcarbamoyl]-2,2-dimethyl-propylcarbamoyl}-1,1-dimethyl-piperidinium formate]
- neutrophil response (unsensitized BN rats; BAL performed 24 h after HDM extract challenge, dosed 2 h prior): clear inhibition
- inhibition of BAL monocytes/macrophages (significance) (unsensitized BN rats; dosing 120 min prior to challenge, 46 μg/kg i.t., BAL 48 h): significant
- performance in vivo (maximum inhibition of the eosinophil response, Figure 5A) (unsensitized BN rats; focused library, durability of inhibition studies): performed well
- effects on BAL neutrophils (unsensitized BN rats; intervening pretreatment intervals, BAL 48 h): insignificant
- effect on BAL neutrophils (significance) (unsensitized BN rats; pretreatment 60 min, 46 μg/kg i.t., BAL 48 h): significant
- effect on BAL neutrophils (significance) (unsensitized BN rats; pretreatment 360 min, 46 μg/kg i.t., BAL 48 h): significant
- effects on BAL neutrophils (unsensitized BN rats; short or long pretreatment intervals, BAL 48 h): inhibitory
- effect on BAL monocytes/macrophages (unsensitized BN rats; shorter pretreatment times, BAL 48 h): modest inhibition
- effect on eosinophils with 6–8 h separation of dose and challenge (unsensitized BN rats; [6]): substantial inhibition
- time of administration before challenge giving peak effects on eosinophils (unsensitized BN rats; [6]): 2 h
- solubility thermodynamic (thermodynamic solubility): > 1600 µM
- hepatocyte half-life (human hepatocytes): ∞ (rat); ∞ (human)
- plasma protein binding [1]: 61%
- half-life (Pharmacokinetics in rats; male, Sprague-Dawley, rat, plasma, po, 5 mg/kg, half-life, fed): 18 min
- volume of distribution (Pharmacokinetics in rats): 0.3 L/kg
- clearance (Pharmacokinetics in rats; fasted): 19 (fasted) mL/min/kg
- fraction unbound at 4 h, 5 µM [2]: 0.37
- cell stability [3]: 100;100
- remaining at 2 h (plasma stability (human)): 100%
- hepatocyte half-life (rat hepatocytes): ∞ (rat); ∞ (human)
- changes in BAL cells after HDM challenge ([4]; HDM 10 (10 μg Der p 1) i.t. aerosol): attenuated
- BAL eosinophils after HDM challenge ([4]; HDM 10): eosinophil suppression
- BAL monocytes/macrophages after HDM challenge ([4]; HDM 10): No effects
- BAL neutrophil responses after HDM challenge ([4]; HDM 10): not significant
- remaining at 2 h (plasma stability (rat)): 100%
- cell stability [5]: 100;100
